Ends that are not written are not given here.
Experiments:
[1] = system: AMPKα1 and AMPKα2 subunits; settings: thoracic aortas; mice with sepsis; cited from earlier work
[2] = system: mice with sepsis; settings: cited from earlier work
[3] = system: AMPKα1 wild-type (WT) and knockout (KO) mice; assay: Survival analysis up to 7 days after hemorrhagic shock; format: in vivo; settings: 100 μg/kg intra-arterially at resuscitation, subcutaneously at 24 h and 48 h, compared to vehicle treatment
Protocol: Preparation of PEGylated humanin-G and survival analysis. In separate groups of mice survival studies were conducted. For these studies, we generated a longer-acting humanin-G by covalent conjugation of polyethylene glycol (PEG). Briefly, humanin-G was conjugated (1:1 molar ratio) to generate a non-cleavable PEGylated humanin-G. Humanin-G was dissolved in phosphate-buffered saline, pH 7.4, with 5 mM EDTA and mixed at room temperature with an equal volume of DMSO containing PEG-maleimide and left overnight (26). The product, PEGylated humanin-G (PEG10 kDa) was purified by size-exclusion chromatography with a 50 mM ammonium acetate buffer. Mice were subjected to hemorrhagic shock as described above. Mice received PEGylated humanin-G (100 μg/kg, intra-arterially) as a single dose at 90 minutes after blood removal at the time of resuscitation. Three hours after resuscitation, the femoral artery was occluded, and the skin incision was closed in layers. Mice were then allowed to awaken from anesthesia. Mice then received a second and a third dose of PEGylated humanin-G (100 μg/kg, subcutaneously) at 24 hours and 48 hours thereafter. Mice also received further fluid resuscitation (0.5 mL of Lactated Ringer's solution subcutaneously) at 6 hours and 24 hours following hemorrhagic shock. […] Mice were then monitored for survival for 7 days. […]

Substance | activation of AMPKα1 and AMPKα2 subunits [1] | organ injury in experimental septic shock ([2]; mice, Urban C, et al. 2022) | endothelial damage in mice with sepsis ([2]; thoracic aortas) | survival [3]
colivelin: synthetic analogue of humanin; SALLRSIPAPAGASRLLLLTGEIDLP (SEQ ID NO: 8) | activates | protective effects | ameliorating | –
PEGylated humanin-G: non-cleavable PEGylated humanin-G, humanin-G conjugated 1:1 molar ratio with PEG-maleimide (PEG10 kDa) (MAPRGFSCLLLLTGEIDLPVKRRA; not fully specified (residue 8); also: PEG 10 kDa maleimide conjugate, attachment site not given here; UniProt Q8IVG9 1-24, looked up, variant S14G) | – | – | – | significantly ameliorated
